Data on 26 compounds can be found in ChEMBL document CHEMBL1201862, “PubChem BioAssay data set” (2004).

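The compound was tested at five concentrations on cells cultured in 96-well plates, with a 48-hour exposure period. Abbreviation: GI50, concentration required for 50% inhibition of growth.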 Active and inactive are the calls of the source. Rule as the data show it: active = GI50 up to about 1.1 µM and inactive = higher. A value given as a limit tells only on which side of the number the result lay.

Among the test systems are LXFL 529; SNB-78; RXF 631; M19-MEL; DMS-114; KM-20L2; HOP-18; DMS-273; XF498.
Experiment in all cases: DTP human tumour cell line panel, 48 h

Take `Cc1nc2ccc(NCCN(C)C)c3c(=O)c4ccccc4n1c23`: the GI50 was 6.56 µM (inactive) in the experiment on LXFL 529; 6.79 µM (inactive) in the experiment with SNB-78; 1.74 µM (inactive) with RXF 631; 5.9 µM (inactive) with M19-MEL; 5.52 µM (inactive) in the experiment with DMS-114; 1.99 µM (inactive) with KM-20L2. Also, the GI50 with HOP-18 was 3.2 µM (inactive).
For `Cn1c(=O)n(CC2CS2)c2ccccc21` (centres undefined), the GI50 was > 100 µM (inactive) with DMS-273; > 100 µM (inactive) in the experiment with LXFL 529; > 100 µM (inactive) with XF498; > 100 µM (inactive) in the experiment with M19-MEL; 50.9 µM (inactive) with DMS-114; > 100 µM (inactive) in the experiment on KM-20L2.
Regarding `CC1(n2nc(-c3ccccc3)n(-c3ccccc3)c2=O)CSC1`, the GI50 in the experiment with DMS-273 is 82.4 µM (inactive); in the experiment on LXFL 529, > 100 µM (inactive); in the experiment on SNB-78 it was > 100 µM (inactive); in the experiment on XF498, 58.9 µM (inactive); in the experiment on M19-MEL, > 100 µM (inactive); in the experiment with DMS-114, 69.5 µM (inactive). Also, the GI50 in the experiment with KM-20L2 was > 100 µM (inactive).
As for `N=C(N)NCCCC(Nc1c2ccccc2[n+]([O-])c2ccccc12)C(=O)O` (centres undefined), the GI50 in the experiment on DMS-273 was 40.5 µM (inactive); in the experiment on LXFL 529, 22.5 µM (inactive); in the experiment on RXF 631, > 100 µM (inactive); in the experiment with M19-MEL, 44.7 µM (inactive); in the experiment on DMS-114, 23.6 µM (inactive); in the experiment with KM-20L2, 95.7 µM (inactive). The GI50 in the experiment on HOP-18 was 33.3 µM (inactive).
Regarding `CNC(=O)OCc1nc(SC)n(C)c1COC(=O)NC`, the GI50 in the experiment with DMS-273 was 86.5 µM (inactive); in the experiment on SNB-78, 68.4 µM (inactive); in the experiment on XF498, 253 µM (inactive); in the experiment with M19-MEL, 182 µM (inactive); with DMS-114 it was 80.5 µM (inactive); in the experiment with KM-20L2 it was 177 µM (inactive). In the experiment on HOP-18, the GI50 is 232 µM (inactive).
As to `O=Cc1cn(C(=O)c2ccccc2)c2ccccc12`, the GI50 in the experiment on DMS-273 was > 100 µM (inactive); with LXFL 529 it was 51.3 µM (inactive); with SNB-78, 36.9 µM (inactive); with M19-MEL it was > 100 µM (inactive); in the experiment on DMS-114 it was 60.1 µM (inactive); with KM-20L2, > 100 µM (inactive).
Take `COc1cc(OC)c(C#N)c(OC)c1C`: the GI50 with DMS-273 is > 100 µM (inactive); in the experiment on LXFL 529, > 100 µM (inactive); in the experiment on SNB-78, > 100 µM (inactive); in the experiment on XF498, 5.62 µM (inactive); with M19-MEL, > 100 µM (inactive); in the experiment with DMS-114, > 100 µM (inactive). In the experiment on KM-20L2, the GI50 is > 100 µM (inactive).
In the case of `O=CC1CCCc2ccccc21` (centres undefined), the GI50 was > 100 µM (inactive) with DMS-273; > 100 µM (inactive) with LXFL 529; > 100 µM (inactive) in the experiment on SNB-78; > 100 µM (inactive) with XF498; > 100 µM (inactive) with M19-MEL; > 47.3 µM (inactive) with DMS-114. Also, the GI50 in the experiment on KM-20L2 and in the experiment on HOP-18 was > 100 µM (inactive) in each case.
Turning to `COc1cc(C2C3=C(CCC3=O)Oc3cc4c(cc32)OCO4)cc(OC)c1OC` (centres undefined), the GI50 with DMS-273 is 0.158 µM (active); with SNB-78, 0.706 µM (active); with XF498, 0.122 µM (active); in the experiment on RXF 631, 0.367 µM (active); in the experiment with M19-MEL, 0.412 µM (active); with DMS-114, 0.218 µM (active). In addition, the GI50 with KM-20L2 was 0.238 µM (active); in the experiment with HOP-18, > 100 µM (inactive).
Turning to `O=C1CCC(=O)c2cc(Br)ccc2N1`, the GI50 with DMS-273 was > 100 µM (inactive); in the experiment on LXFL 529 it was > 100 µM (inactive); in the experiment with SNB-78, > 100 µM (inactive); in the experiment with XF498, > 100 µM (inactive); in the experiment on RXF 631, > 100 µM (inactive); with M19-MEL, > 70.5 µM (inactive). The GI50 in the experiment on DMS-114 was > 90.6 µM (inactive); in the experiment with KM-20L2, > 100 µM (inactive); in the experiment with HOP-18 it was > 100 µM (inactive).
As for `O=P(Nc1cccc(Cl)c1)(Oc1ccccc1)N(CCCl)CCCl` (centres undefined), the GI50 with DMS-273 is 13.6 µM (inactive); in the experiment with LXFL 529 it was 11.7 µM (inactive); with SNB-78, 18.3 µM (inactive); in the experiment on M19-MEL, 18 µM (inactive); in the experiment with DMS-114, 12.7 µM (inactive); in the experiment with KM-20L2, 13.3 µM (inactive). Also, the GI50 with HOP-18 was 24.9 µM (inactive).
With `COc1ccc(C2C(Cl)C(=O)N2NC(=O)c2ccc(N)cc2)cc1` (centres undefined), the GI50 with DMS-273, in the experiment with LXFL 529, with SNB-78, in the experiment on XF498, in the experiment with M19-MEL and in the experiment with DMS-114 was > 100 µM (inactive) in each case. In addition, the GI50 in the experiment on KM-20L2 is > 100 µM (inactive).
Regarding `Cc1ccc2c(c1CCCC(C)(C)O)C(=O)C(O)=C(C(C)C)C2=O`, the GI50 with DMS-273 is 95.5 µM (inactive); in the experiment with LXFL 529, 62.1 µM (inactive); in the experiment with M19-MEL, 96.6 µM (inactive); in the experiment on DMS-114 it was 39.1 µM (inactive); with KM-20L2 it was > 100 µM (inactive); with HOP-18, > 100 µM (inactive).
For `COC(=O)C(Cc1nc2ccccc2nc1O)C(=O)C(=O)Nc1ccc(F)cc1` (centres undefined), the GI50 in the experiment on DMS-273 is 48.1 µM (inactive); in the experiment on LXFL 529, 15.7 µM (inactive); in the experiment with XF498 it was 54 µM (inactive); in the experiment with RXF 631, 32.7 µM (inactive); with M19-MEL, 46.7 µM (inactive); with DMS-114, 22.9 µM (inactive). For the same compound, the GI50 in the experiment on KM-20L2 and in the experiment with HOP-18 was > 100 µM (inactive) throughout.
Consider `O=C(CN1CCN(c2cccc(Cl)c2)CC1)N1CCc2c([nH]c3ccccc23)C1c1cccnc1` (centres undefined), for which the GI50 with DMS-273 is 6.68 µM (inactive); with SNB-78, 18.3 µM (inactive); in the experiment with XF498, 12.2 µM (inactive); in the experiment on RXF 631, 7.31 µM (inactive); with M19-MEL it was 7.76 µM (inactive); with DMS-114, 4.25 µM (inactive). Moreover, the GI50 in the experiment with KM-20L2 was 3 µM (inactive); in the experiment with HOP-18 it was 33.2 µM (inactive).
For `CC1(c2ccc(Cl)cc2)C2C(=O)NC(=O)C1C(=O)NC2=O` (centres undefined), the GI50 was > 100 µM (inactive) with DMS-273; > 100 µM (inactive) with LXFL 529; > 100 µM (inactive) in the experiment with SNB-78; > 100 µM (inactive) with XF498; > 100 µM (inactive) in the experiment with M19-MEL; 56.5 µM (inactive) in the experiment on KM-20L2.
On to `O=C(Nc1ccccc1)C(=O)C(C(=O)c1ccccc1F)C1OC(=O)c2ccccc21` (centres undefined), for which the GI50 in the experiment on DMS-273 is 31.3 µM (inactive); in the experiment on LXFL 529, 23.6 µM (inactive); in the experiment on SNB-78, > 100 µM (inactive); in the experiment with XF498 it was 20.7 µM (inactive); with RXF 631, 31.2 µM (inactive); in the experiment with M19-MEL it was 30.1 µM (inactive). Also, the GI50 in the experiment with DMS-114 is 20.9 µM (inactive); in the experiment on KM-20L2 it was 33.6 µM (inactive).
With `CCOC(=O)CC(=O)ON(C)C(=O)Cc1ccccc1`, the GI50 with LXFL 529, in the experiment on SNB-78, with RXF 631, with M19-MEL, in the experiment on DMS-114 and in the experiment with KM-20L2 was > 100 µM (inactive) throughout.
Take `C[P+](C)(C)c1ccccc1`: the GI50 with DMS-273, in the experiment with LXFL 529, with XF498, in the experiment with RXF 631, in the experiment on M19-MEL and in the experiment on DMS-114 was > 100 µM (inactive) in each case. Moreover, the GI50 in the experiment with KM-20L2 and in the experiment on HOP-18 was > 100 µM (inactive) each time.
Regarding `CCOC(OC1=C(C#N)CCCC1)C(CC)[Se]c1ccccc1[N+](=O)[O-]` (centres undefined), the GI50 is 20.9 µM (inactive) in the experiment with DMS-273; 26.5 µM (inactive) with LXFL 529; 25.5 µM (inactive) in the experiment on SNB-78; 30.2 µM (inactive) with XF498; 19.1 µM (inactive) in the experiment on M19-MEL; 15.7 µM (inactive) with DMS-114. For the same compound, the results for the GI50 in the experiment on KM-20L2 and with HOP-18 were 17.2 µM (inactive) and 26.5 µM (inactive), respectively.
As for `Cc1cc(N(CCC#N)CCC#N)ccc1/N=N/c1cccc(C(=O)O)c1`, the GI50 in the experiment with DMS-273 is > 100 µM (inactive); in the experiment on LXFL 529, > 100 µM (inactive); in the experiment on SNB-78, > 100 µM (inactive); in the experiment with XF498, 52.4 µM (inactive); with RXF 631 it was > 100 µM (inactive); in the experiment on M19-MEL it was > 100 µM (inactive). Further, the GI50 in the experiment with DMS-114 and in the experiment on HOP-18 was > 100 µM (inactive) each time.
As to `CN1OC(=O)N(C)C1c1ccccc1` (centres undefined), the GI50 with DMS-273, in the experiment with SNB-78, with XF498, with M19-MEL, in the experiment with DMS-114 and in the experiment on KM-20L2 was > 100 µM (inactive) throughout. Also, the GI50 with HOP-18 is > 100 µM (inactive).
For the compound `CCCCCCCCCCCC(=O)OC[C@H](C[As](=O)(O)O)OC(=O)CCCCCCCCCCC`, the GI50 in the experiment on DMS-273 was 3.98 µM (inactive); in the experiment on LXFL 529, 3.82 µM (inactive); with SNB-78, 2.94 µM (inactive); in the experiment with XF498, 10.1 µM (inactive); with M19-MEL, 8.18 µM (inactive); in the experiment on DMS-114, 1.95 µM (inactive). Also, the GI50 in the experiment on KM-20L2 was 6.04 µM (inactive); in the experiment with HOP-18, 7.29 µM (inactive).
Turning to `Cc1cc(O)nc(NNC(C#N)c2cccc(O)c2)n1` (centres undefined), the GI50 with DMS-273, in the experiment with LXFL 529, in the experiment on SNB-78, with M19-MEL, in the experiment on DMS-114 and in the experiment on KM-20L2 was > 100 µM (inactive) in each case. Besides, in the experiment on HOP-18, the GI50 was 86.7 µM (inactive).
Regarding `COc1ccc(C2Oc3cc(OC)c(O)cc3[C@@H]2C)cc1` (some centres undefined), the GI50 with DMS-273 was 29.4 µM (inactive); in the experiment with LXFL 529, 17.5 µM (inactive); in the experiment on SNB-78, > 100 µM (inactive); in the experiment on XF498, 16.9 µM (inactive); in the experiment with M19-MEL it was > 10 µM (inactive); with DMS-114 it was 18.7 µM (inactive). In addition, the GI50 was 49.5 µM (inactive) in the experiment on KM-20L2 and 5.05 µM (inactive) with HOP-18.
Regarding `CCC1(c2ccc(N)cc2)CCC(=O)NC1=O` (centres undefined) [AMINOGLUTETHIMIDE], the GI50 with DMS-273 was 2560 µM (inactive); with SNB-78, 2170 µM (inactive); in the experiment with XF498, 1550 µM (inactive); in the experiment on M19-MEL, 2210 µM (inactive); with DMS-114 it was 1530 µM (inactive); in the experiment with KM-20L2, 3940 µM (inactive). Moreover, the GI50 in the experiment on HOP-18 is 3120 µM (inactive).

In general, GI50 refers to the concentration at which growth is held to half of that of the control.
